# Data from patent publication US20250051347A1, “BIFUNCTIONAL CHIMERIC HETEROCYCLIC COMPOUND AND USE THEREOF AS ANDROGEN RECEPTOR DEGRADER” (Hinova Pharmaceuticals, Inc., priority 2021, published 2025).
# Biological target: T1, androgen receptor (AR) splicing variant AR-v7 (Homo sapiens, UniProt P10275)
# T1 construct: The degradation activity of compounds on AR-v7 in 22RV1 cells; host or cells: 22RV1 cells
# T1 sequence (P10275 1-644 isoform P10275-3): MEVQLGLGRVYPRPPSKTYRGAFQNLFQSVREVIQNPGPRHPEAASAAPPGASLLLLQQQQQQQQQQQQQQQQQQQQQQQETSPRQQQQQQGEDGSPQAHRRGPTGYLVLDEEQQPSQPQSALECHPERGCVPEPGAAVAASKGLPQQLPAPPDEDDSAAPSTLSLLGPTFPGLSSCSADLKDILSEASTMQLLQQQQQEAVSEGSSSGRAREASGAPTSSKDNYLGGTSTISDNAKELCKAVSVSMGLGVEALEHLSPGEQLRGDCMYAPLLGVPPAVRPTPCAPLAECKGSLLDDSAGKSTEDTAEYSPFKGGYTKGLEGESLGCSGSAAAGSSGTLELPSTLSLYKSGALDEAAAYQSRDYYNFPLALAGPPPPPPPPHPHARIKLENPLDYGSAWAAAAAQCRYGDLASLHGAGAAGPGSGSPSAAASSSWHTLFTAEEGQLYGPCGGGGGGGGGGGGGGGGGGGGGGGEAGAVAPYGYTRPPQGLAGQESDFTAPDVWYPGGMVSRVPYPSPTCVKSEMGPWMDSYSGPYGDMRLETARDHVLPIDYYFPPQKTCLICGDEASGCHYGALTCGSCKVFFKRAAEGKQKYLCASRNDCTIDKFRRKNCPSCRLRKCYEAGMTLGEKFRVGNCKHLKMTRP
# Assay: Degradation activity on androgen receptor splicing variant AR-v7 in 22RV1 cells (ELISA)
# Type: cell-based
# Conditions: AR-v7 degradation in 22RV1 cells, 48 h, class symbols
row,Structure (SMILES),DC50
1,"CC(C)(c1ccc(OCCCOc2ccc3c(c2)C(=O)N(C2CCC(=O)NC2=O)C3=O)cc1)c1ccc(OCc2ccnc(N3CC4(COC4)C3)n2)cc1 (centres unmarked) [Example 113, 5-(3-(4-(2-(4-((2-(2-oxa-6-azaspiro[3.3]heptan-6-yl)pyrimidin-4-yl)methoxy)phenyl)propan-2-yl)phenoxy)propoxy)-2-(2,6-dioxopiperidin-3-yl)isoindolin-1,3-dione]",1000 to 5000 nM
2,"CC(C)(c1ccc(OCCNC(=O)c2ccc3c(c2)C(=O)N(C2CCC(=O)NC2=O)C3=O)cc1)c1ccc(OCc2ccnc(N3CC4(COC4)C3)n2)cc1 (centres unmarked) [Example 114, N-(2-(4-(2-(4-((2-(2-oxa-6-azaspiro[3.3]heptan-6-yl)pyrimidin-4-yl)methoxy)phenyl)propan-2-yl)phenoxy)ethyl)-2-(2,6-dioxopiperidin-3-yl)-1,3-dioxoisoindolin-5-carbonylamine]",1000 to 5000 nM
3,CC(C)(c1ccc(OCCCCCCCCOCCCCNc2ccc3c(c2)C(=O)N(C2CCC(=O)NC2=O)C3=O)cc1)c1ccc(OCc2nc(C(N)=O)no2)cc1 (centres unmarked) [Example 138],1000 to 5000 nM
4,"CC(C)(c1ccc(OCCCNc2ccc3c(c2)C(=O)N(C2CCC(=O)NC2=O)C3=O)cc1)c1ccc(OCc2nc(C(=O)N3CCC3)no2)cc1 (centres unmarked) [Example 139, 5-((3-(4-(2-(4-((3-(azetidin-1-carbonyl)-1,2,4-oxadiazol-5-yl)methoxy)phenyl)propan-2-yl)phenoxy)propyl)amino)-2-(2,6-dioxopiperidin-3-yl)isoindolin-1,3-dione]",101 to 1000 nM
5,"CC(C)(c1ccc(OCCCNc2ccc3c(c2)C(=O)N(C2CCC(=O)NC2=O)C3=O)cc1)c1ccc(OCc2nc(C(=O)N3CCCC3)no2)cc1 (centres unmarked) [Example 140, 2-(2,6-dioxopiperidin-3-yl)-5-((3-(4-(2-(4-((3-(pyrrolidin-1-carbonyl)-1,2,4-oxadiazol-5-yl)methoxy)phenyl)propan-2-yl)phenoxy)propyl)amino)isoindolin-1,3-dione]",101 to 1000 nM
6,"CC(=O)c1nccc(COc2ccc(C(C)(C)c3ccc(OC[C@H]4CCCN4c4ccc5c(c4)C(=O)N(C4CCC(=O)NC4=O)C5=O)cc3)cc2)n1 (stereo partly drawn) [Example 144, 5-((R)-2-((4-(2-(4-((2-acetylpyrimidin-4-yl)methoxy)phenyl)propan-2-yl)phenoxy)methyl)pyrrolidin-1-yl)-2-(2,6-dioxopiperidin-3-yl)isoindolin-1,3-dione]",1000 to 5000 nM
7,"CC(=O)c1nccc(COc2ccc(C(C)(C)c3ccc(OC[C@@H]4CCCN4c4ccc5c(c4)C(=O)N(C4CCC(=O)NC4=O)C5=O)cc3)cc2)n1 (stereo partly drawn) [Example 145, 5-((S)-2-((4-(2-(4-((2-acetylpyrimidin-4-yl)methoxy)phenyl)propan-2-yl)phenoxy)methyl)pyrrolidin-1-yl)-2-(2,6-dioxopiperidin-3-yl)isoindolin-1,3-dione]",101 to 1000 nM
8,CC(=O)c1nccc(COc2ccc(C(C)(C)c3ccc(OC[C@H]4CC[C@H](Nc5ccc6c(c5)C(=O)N(C5CCC(=O)NC5=O)C6=O)CC4)cc3)cc2)n1 (some centres unmarked) [Example 146],1000 to 5000 nM
9,"CC(C)(c1ccc(OCc2ccnc(N3CC4(COC4)C3)n2)cc1)c1ccc(OC2CCN(Cc3ccc4c(c3)C(=O)N(C3CCC(=O)NC3=O)C4=O)CC2)cc1 (centres unmarked) [Example 147, 5-((4-(4-(2-(4-((2-(2-oxa-6-azaspiro[3.3]heptan-6-yl)pyrimidin-4-yl)methoxy)phenyl)propan-2-yl)phenoxy)piperidin-1-yl)methyl)-2-(2,6-dioxopiperidin-3-yl)isoindolin-1,3-dione]",1000 to 5000 nM
10,CC(C)[C@H](COc1ccc(C(C)(C)c2ccc(OCc3ccnc(N4CC5(COC5)C4)n3)cc2)cc1)Nc1ccc2c(c1)C(=O)N(C1CCC(=O)NC1=O)C2=O (some centres unmarked) [Example 149],1000 to 5000 nM
11,CC(C)(c1ccc(OCc2ccnc(N3CC4(COC4)C3)n2)cc1)c1ccc(OC2CCCC[C@H]2Nc2ccc3c(c2)C(=O)N(C2CCC(=O)NC2=O)C3=O)cc1 (some centres unmarked) [Example 152],1000 to 5000 nM

# Now from value to molecule:
row,DC50,Structure (SMILES)
1,101 to 1000 nM,"CC(C)(c1ccc(Oc2ccc(-n3nccn3)nc2)cc1)c1ccc(OC2CC(Nc3ccc4c(c3)CN(C3CCC(=O)NC3=O)C4=O)C2)cc1 (centres unmarked) [Example 93, 3-(5-((1r,3r)-3-(4-(2-(4-((6-(2H-1,2,3-triazol-2-yl)pyridin-3-yl)oxy)phenyl)propan-2-yl)phenoxy)cyclobutyl)amino)-1-oxoisoindolin-2-yl)piperidin-2,6-dione]"
2,101 to 1000 nM,"CN1C(=O)CCC(N2C(=O)c3ccc(N[C@H]4C[C@H](Oc5ccc(C(C)(C)c6ccc(OCc7ccnc(N8CC9(COC9)C8)n7)cc6)cc5)C4)cc3C2=O)C1=O (some centres unmarked) [Example 100, 5-((1r,3r)-3-(4-(2-(4-(4-((2-(2-oxa-6-azaspiro[3.3]heptane-6-yl)pyrimidin-4-yl)methoxy)phenyl)propan-2-yl)phenoxy)cyclobutyl)amino)-2-(1-methyl-2,6-dioxopiperidin-3-yl)isoindolin-1,3-dione]"
3,11 to 100 nM,Cc1nc(-c2ncc(Oc3ccc(C(C)(C)c4ccc(O[C@H]5C[C@H](Nc6cc7c(cc6F)C(=O)N(C6CCC(=O)NC6=O)C7=O)C5)cc4)cc3)cn2)no1 (some centres unmarked) [Example 102]
4,101 to 1000 nM,"CC(=O)c1nccc(COc2ccc(C(C)(C)c3ccc(O[C@H]4C[C@H](N(C)c5ccc6c(c5)C(=O)N(C5CCC(=O)NC5=O)C6=O)C4)cc3)cc2)n1 (stereo partly drawn) [Example 111, 5-(((trans)-3-(4-(2-(4-((2-acetylpyrimidin-4-yl)methoxy)phenyl)propan-2-yl)phenoxy)cyclobutyl)(methyl)amino)-2-(2,6-dioxopiperidin-3-yl)isoindolin-1,3-dione]"
5,11 to 100 nM,"CC(C)(c1ccc(OCc2ccnc(N3CC4(COC4)C3)n2)cc1)c1ccc(OCC2CC(Nc3ccc4c(c3)C(=O)N(C3CCC(=O)NC3=O)C4=O)C2)cc1 (centres unmarked) [Example 112, 5-((3-((4-(2-(4-((2-(2-oxa-6-azaspiro[3.3]heptan-6-yl)pyrimidin-4-yl)methoxy)phenyl)propan-2-yl)phenoxy)methyl)cyclobutyl)amino)-2-(2,6-dioxopiperidin-3-yl)isoindolin-1,3-dione]"
6,11 to 100 nM,"CC(C)(c1ccc(OCc2cccc(C(=O)C3CC3)n2)cc1)c1ccc(O[C@H]2C[C@H](Nc3ccc4c(c3)C(=O)N(C3CCC(=O)NC3=O)C4=O)C2)cc1 (stereo partly drawn) [Example 117, 5-(((trans)-3-(4-(2-(4-((6-(cyclopropanecarbonyl)pyridin-2-yl)methoxy)phenyl)propan-2-yl)phenoxy)cyclobutyl)amino)-2-(2,6-dioxopiperidin-3-yl)isoindolin-1,3-dione]"
7,11 to 100 nM,Cc1nnc(-c2ccc(Oc3ccc(C(C)(C)c4ccc(O[C@H]5C[C@@H](Nc6ccc7c(=O)n(C8CCC(=O)NC8=O)cnc7c6)C5)cc4)cc3)cn2)o1 (some centres unmarked) [Example 120]
8,11 to 100 nM,CC(O)c1ncc(Oc2ccc(C(C)(C)c3ccc(O[C@H]4C[C@@H](Nc5ccc6c(c5)C(=O)N(C5CCC(=O)NC5=O)C6=O)C4)cc3)cc2)cn1 (some centres unmarked) [Example 127]
9,11 to 100 nM,CC(O)c1cnc(Oc2ccc(C(C)(C)c3ccc(O[C@H]4C[C@@H](Nc5ccc6c(c5)C(=O)N(C5CCC(=O)NC5=O)C6=O)C4)cc3)cc2)cn1 (some centres unmarked) [Example 129]
10,101 to 1000 nM,"CC(=O)c1nccc(COc2ccc(C(C)(C)c3ccc(OCCCCCCCCOCCCCNc4ccc5c(c4)C(=O)N(C4CCC(=O)NC4=O)C5=O)cc3)cc2)n1 (centres unmarked) [Example 136, 5-((4-((8-(4-(2-(4-((2-acetylpyrimidin-4-yl)methoxy)phenyl)propan-2-yl)phenoxy)octyl)oxy)butyl)amino)-2-(2,6-dioxopiperidin-3-yl)isoindolin-1,3-dione]"
11,11 to 100 nM,"CNC(=O)c1noc(COc2ccc(C(C)(C)c3ccc(OCCCNc4ccc5c(c4)C(=O)N(C4CCC(=O)NC4=O)C5=O)cc3)cc2)n1 (centres unmarked) [Example 137, 5-((4-(2-(4-(3-((2-(2,6-dioxopiperidin-3-yl)-1,3-dioxoisoindolin-5-yl)amino)propoxy)phenyl)propan-2-yl)phenoxy)methyl)-N-methyl-1,2,4-oxadiazol-3-carbonylaminomethane]"
12,11 to 100 nM,CC(C)[C@@H](COc1ccc(C(C)(C)c2ccc(OCc3ccnc(N4CC5(COC5)C4)n3)cc2)cc1)Nc1ccc2c(c1)C(=O)N(C1CCC(=O)NC1=O)C2=O (some centres unmarked) [Example 150]
13,11 to 100 nM,"CC(COc1ccc(C(C)(C)c2ccc(OCc3ccnc(N4CC5(COC5)C4)n3)cc2)cc1)Nc1ccc2c(c1)C(=O)N(C1CCC(=O)NC1=O)C2=O (centres unmarked) [Example 151, 5-((1-(4-(2-(4-((2-(2-oxa-6-azaspiro[3.3]heptan-6-yl)pyrimidin-4-yl)methoxy)phenyl)propan-2-yl)phenoxy)propan-2-yl)amino)-2-(2,6-dioxopiperidin-3-yl)isoindolin-1,3-dione]"

# Same assay, conditions: AR-v7 degradation in 22RV1 cells, 48 h, numeric values
row,DC50,Structure (SMILES)
1,> 10000 nM,CC(=O)c1nccc(COc2ccc(C(C)(C)c3ccc(OC4CCCN(c5ccc6c(c5)C(=O)N(C5CCC(=O)NC5=O)C6=O)C4)cc3)cc2)n1 (centres unmarked) [Example 107]
2,> 10000 nM,"CC(=O)c1nccc(COc2ccc(C(C)(C)c3ccc(OCC4CCN(c5ccc6c(c5)C(=O)N(C5CCC(=O)NC5=O)C6=O)CC4)cc3)cc2)n1 (centres unmarked) [Example 108, 5-(4-((4-(2-(4-((2-acetylpyrimidin-4-yl)methoxy)phenyl)propan-2-yl)phenoxy)methyl)piperidin-1-yl)-2-(2,6-dioxopiperidin-3-yl)isoindol-1,3-dione]"
